Measured values reported in patent US5652366A, “DI (1R)-(-)camphosulfonic acid) salt, preparation thereof and use thereof” (Rhone-Poulenc Rorer Pharmaceuticals Inc., priority 1995, dated 1997).
Read-outs that look alike come from different tables or passages of the source. One block for each compound: values may come before it.

Assays:
[1] = test system: myocardial infarct in Sprague-Dawley rats; test: Cardioprotective activity in rat: myocardial infarct size after coronary occlusion/reperfusion; type: in vivo; conditions: control 63 ± 5, preconditioned 15 ± 8
Experimental: Adult Sprague-Dawley rats are anesthetized with Inactin (100 mg/kg i.p.). The trachea is intubated and positive pressure ventilation is provided via a small animal respirator. Catheters are placed in the femoral vein and artery for administration of compounds of the present invention to be tested, and measurement of blood pressure, respectively. An incision is made on the left side of the thorax over the pectoral muscles, and the muscles are retracted to expose the fourth intercostal space. The chest cavity is opened and the heart is exposed. A length of 4-0 proline suture is placed through the ventricular wall near the left main coronary artery and is used to interrupt blood flow through the cornary artery by tightening a slip-knot. A pulsed-Doppler flow probe (a device which measures blood flow) is placed on the surface of the heart to confirm that the coronary artery has been porperly identified. […]
For preconditioning the heart, the coronary artery is occluded (flow is interrupted) for a period of two minutes. […] Infarct size is determined by slicing the heart from apex to base into four to five slices 1-2 mm thick. […] The tissue slices are placed in a video image analysis system and infarct size is determined by planimetry. The effect of the compound of the present invention tested on myocardial infarct size is assessed and used to quantirate the extent of cardioprotective activity. […]

rat adipocytes = test: In vitro lipolysis assay in rat adipocytes (glycerol production); type: cell-based; conditions: Rattus norvegicus, Adipocyte; for EC50: read-out: EC50 (50% inhibition of glycerol production), unit nM in cell
Experimental: Adipose tissue is removed from anesthetized rats and rinsed twice in incubation medium (2.09 g sodium bicarbonate and 0.04 g EDTA, disodium salt, in 1 L Krebs buffer). Each rat (300-350 g) yields approximately 4 ml of adipose tissue. The adipose tissue (35 ml) is cut into small pieces with scissors and washed with incubation medium (50 ml). The mixture is poured into the barrel of a 50 ml syringe to which is attached a short piece of clamped tubing instead of a needle. The aqueous phase is allowed to drain. A second wash with incubation medium is passed through the syringe. The tissue is added to 50 ml of collagenase solution (collagenase(90 mg), bovine serum albumin (BSA) (500 mg), and 0.1 M calcium chloride solution (1 ml), in incubation medium (50 ml)) in a 1 L bottle. The mixture is shaken in an environmental at 37° C. for about 60 minutes under an atmosphere of 95% oxygen/5% carbon dioxide to effect digestion of the tissue. The dispersed cells are poured through 2 layers of cheese cloth into a 100 ml plastic beaker. The undigested clumps in the cloth are rinsed once with incubation medium (20 ml). The cells in the beaker are centrifuged in 2 plastic tubes for 30 seconds at room temperature at 300 rpm. The aqueous phase is aspirated from beneath the loosely packed layer of floating fat cells and discarded. The adipocytes are gently poured into a 250 ml plastic beaker containing 100 ml of rinse solution (1 g BSA per 100 ml incubation medium). After gentle stirring the centrifugation step is repeated. Another wash with rinse solution follows. The cells are pooled and their volume is estimated with a graduated cylinder. The adipocytes are diluted in twice their volume of assay buffer (incubation medium (120 ml), BSA (1.2 g), pyruvic acid (13 mg)).
The assay is performed in 20 ml plastic scintillation vials and the total assay volume is 4.2 ml. Assay buffer (2.5 ml), diluted adipocytes (1.5 ml), and a solution of the compound to be tested (12.3 μL) adenosine agonist (12.3 μl; varying concentration) is incubated in the environmental shaker for 15 minutes, then the reaction is started with norepinephrine solution (41.2 μL) (10 nM, in a carrier solution containing water (100 ml), BSA (4 mg), and 0.1 M EDTA (20 I. LL))and adenosine deaminase (1 μg/ml, 41.2 μl). After sixty minutes in the shaker the reaction is terminated by putting the vials on ice. […] The hard lipid layer is removed by aspiration and the aqueous layer is assayed for glycerol (400 μl of sample). The positive control is done in the absence of any adenosine agonist, substituting water in place of the solution to be tested.

A2 receptor = conditions: relative to NECA; cited from earlier work
A1 and A2 receptors = conditions: reported developments; cited from earlier work
A1 adenosine receptor = target: T1, A1 adenosine receptor (Rattus norvegicus, UniProt P25099); test: biochemical; conditions: rat whole brain membranes, 3H-CHA; Table II; read-out: Adenosine Receptor Binding Activity/IC50 (nM) A1
T1 sequence (P25099 1-326): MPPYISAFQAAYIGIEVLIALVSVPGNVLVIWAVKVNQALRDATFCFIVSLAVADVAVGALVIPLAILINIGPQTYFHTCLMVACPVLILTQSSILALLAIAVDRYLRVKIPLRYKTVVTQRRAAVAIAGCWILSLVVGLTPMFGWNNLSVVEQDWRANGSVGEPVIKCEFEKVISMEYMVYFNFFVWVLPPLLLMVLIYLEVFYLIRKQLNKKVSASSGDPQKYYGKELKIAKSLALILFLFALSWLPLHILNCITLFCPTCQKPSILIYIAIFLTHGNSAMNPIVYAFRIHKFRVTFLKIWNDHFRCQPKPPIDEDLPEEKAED
Experimental: Non-specific binding was assessed in the presence of 1 mM theophylline.
The assays were run in glass test tubes in duplicate at 25° C. Once the membranes were added, the tubes were vortexed and incubated at 25° C. for 60 minutes (A1 assay) or 90 minutes (A2 assay) on a rotary shaker. The assay tubes were vortexed halfway through the incubation and again near the end. The assays were terminated by rapid filtration through 2.4 cm GF/B filters using a Brandel Cell Harvestor. The test tubes were washed three times with cold 50 mM tris-HCl (pH 7.7 or 7.4), with filtration being completed within 15 seconds. The damp filter circles were placed in glass scintillation vials filled with 10 ml of Aquasol II (New England Nuclear). The vials were allowed to shake overnight on a rotary shaker and were placed into a liquid scintillation analyzer for two minute counts. IC50 values for receptor binding, i.e. the concentration at which a compound of the invention displaced the radiolabeled standard, were obtained using a curve-fitting computer program (RS/1, Bolt, Beranek and Newman, Boston, Mass.).

A2 adenosine receptor = A2 adenosine receptor (Rattus norvegicus, UniProt P30543); test: biochemical; conditions: rat brain striatum membranes, 3H-CGS 21680; Table II; read-out: Adenosine Receptor Binding Activity/IC50 (nM) A2
swine coronary arteries = test: In vitro vasorelaxation in isolated swine coronary arteries (PGF2α-contracted rings); type: cell-based; conditions: Sus scrofa; 50% reduction in tension, 3 μM PGF2α; Table II; read-out: Vasorelaxation in Swine Coronary Artery/IC50
Experimental: Swine coronary arteries were obtained from a local slaughter house, dissected carefully and cleaned of fat, blood and adhering tissue. Rings approximately 2-3 mm wide were cut and transferred to water-jacketed tissue baths (10 ml) filled with warm (37° C.), oxygenated (O2 /CO2 :95%/5%) Krebs-Henseleit buffer and mounted on L-shaped hooks between stainless steel rods and a force transducer. […] Rings were equilibrated for 90 minutes with frequent buffer changes at a resting tension of 5 g In order to assure optimal tension development, arterial rings were primed twice with 36 mM KCl and once with 10 μm. PGF2α, before being exposed to 3 μM PGF2α. […] Tension achieved with 3 μM PGF2α was considered .equivalent to 100%; all other values were expressed as a percentage of that maximum.

[2] = test system: spontaneously hypertensive rat (SHR); test: Oral antihypertensive activity in conscious spontaneously hypertensive rat (SHR); type: in vivo; conditions: for SHR MAP/%: D = decrease; for SHR HR/%: I = increase
Experimental: The oral antihypertensive activity of compounds of the invention were examined in conscious spontaneously hypertensive rats. The rats were anesthetized with sodium pentabarbatol (50 mg/kg i.p.). A telemetry transducer was implanted into the rats abdomen via midline incision. The cannula of the transducer was inserted into the abdomenal aorta to allow direct measurement of arterial pressure in the conscious SHR. The transducer was secured to the abdomenal wall. After recovery from surgery (minimum of seven days), the SHR were placed on a receiver plate and the transducer/transmitter was activated. Systolic, diastolic and mean arterial pressure and heart rate were recorded for 1.5 hours in the unrestrained conscious rat to establish a stable baseline. Each rat then received a single dose of the compound of the invention to be tested, or vehicle, and changes in arterial pressure and heart rate were monitored for 20 hours and recorded.

[3] = test system: normotensive anesthetized rat; test: In vivo mean arterial pressure and heart rate in normotensive anesthetized rat; conditions: iv
Experimental: Normotensive rats were anesthetized with sodium pentobarbital (50 mg/kg, j.p.) and placed on a heated surgical table. Cannulas were inserted into the femoral artery and […] to allow the measurement of arterial pressure and to facilitate the intravenous administration of test compounds. The animals was allowed to equilibrate for 10 minutes after surgery. Mean arterial pressure was continuously measured and recorded and heart rate was monitored using the arterial pressure pulse to trigger a cardiotachometer. After baseline parameters were established and recorded, increasing doses (1, 3, 10, 30, 100, 300 and 1000 μg/kg) of the compound of the invention to be tested were administered intravenously. Maximal changes in the cardiovascular parameters were observed after each dose of the adenosine agonist. Only one compound was administered per rat.

Chain of A2 adenosine receptor (P30543 whole entry): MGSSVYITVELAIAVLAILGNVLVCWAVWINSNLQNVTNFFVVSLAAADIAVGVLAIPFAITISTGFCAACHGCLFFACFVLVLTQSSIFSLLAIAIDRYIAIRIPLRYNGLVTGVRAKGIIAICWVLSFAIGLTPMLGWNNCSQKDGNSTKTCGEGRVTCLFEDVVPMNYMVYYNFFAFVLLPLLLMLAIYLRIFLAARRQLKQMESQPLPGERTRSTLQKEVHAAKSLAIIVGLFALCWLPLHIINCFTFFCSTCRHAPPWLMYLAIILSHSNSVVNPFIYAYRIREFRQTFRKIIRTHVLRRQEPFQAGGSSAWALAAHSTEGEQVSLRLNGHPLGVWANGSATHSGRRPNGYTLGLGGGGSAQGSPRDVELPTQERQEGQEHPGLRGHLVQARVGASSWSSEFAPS

EC50 (rat adipocytes): 5.4 nM
Compound: CCNC(=O)[C@H]1C[C@@H](n2cnc3c(N[C@H](CC)Cc4sccc4Cl)ccnc32)[C@H](O)[C@@H]1O (single isomer, unassigned) [Example 39, [1S-[1α,2β,3β,4α(S*)]]-4-[7-[[2-(3-chloro-2-thienyl)-1-ethylethyl]amino]-3 H-imidazo[4,5-b]pyridin-3-yl]-N-ethyl-2,3-dihydroxycyclopentane-carboxamide]
% Risk Area Infarcted ([1]; Compound High: i.v. bolus 10 μg/kg, then 1 μg/kg/minute from 30 minutes prior to occlusion to 2 hours after reperfusion): 18 ± 5%
% Risk Area Infarcted ([1]; Compound Low: i.v. bolus 1 μg/kg, then 0.1 μg/kg/minute for 30 minutes prior to occlusion): 23 ± 9%

Compound: Nc1nc(Nc2ccccc2)nc2c1ncn2[C@@H]1O[C@H](CO)[C@@H](O)[C@H]1O [CV-1808]
fold less potent than NECA in affinity for the A2 receptor (A2 receptor): 10 fold
A2/A1 ratio (A1 and A2 receptors): 0.19

IC50 (A1 adenosine receptor): 2.69 nM
IC50 (A2 adenosine receptor): 12.9 nM
EC50 (swine coronary arteries): 21 nM
EC50 (rat adipocytes): 0.76 nM
Compound: CCNC(=O)[C@H]1C[C@@H](n2cnc3c(N[C@H](C)Cc4ccc(Cl)s4)ncnc32)[C@H](O)[C@@H]1O [Example 6, (-)-[2S-[2α,3α-dihydroxy-4-β-[N6-[2-(5-chloro-2-thienyl)-(1R)-1-methylethyl]amino]-9-adenyl]cyclopentane]-1-β-N-ethylcarboxamide]
SHR MAP/% ([2]; 1 mg/kg): 18%
SHR HR/% ([2]; 1 mg/kg): 7%

IC50 (A1 adenosine receptor): 87.1 nM
IC50 (A2 adenosine receptor): 63.1 nM
EC50 (swine coronary arteries): 82 nM
EC50 (rat adipocytes): 89 nM
Compound: CCNC(=O)[C@H]1C[C@@H](n2cnc3c(NCCc4cccs4)ncnc32)[C@H](O)[C@@H]1O [Example 26, (-)-N^6-[(thiophen-2"-yl)ethan-2-yl]carbocyclic adenosine-5'-N-ethyl carboxamide]
ED25 ([3]; dose lowering heart rate by 25%, read-out: Blood Press/Heart Rate Anesthetized Rat HR/ED25): > 30 µg/kg
ED25 ([3]; dose lowering mean arterial pressure by 25%, read-out: Blood Press/Heart Rate Anesthetized Rat MAP/ED25): 4 µg/kg
SHR MAP/% ([2]; 2.5 mg/kg): 41%
SHR HR/% ([2]; 2.5 mg/kg): 3%
inhibition at 1 µM (rat adipocytes; 1 μM, versus positive control, read-out: % Inhibition of glycerol production): 96%
